A short description of series [1]: Inhibition of gamma secretase-mediated amyloid beta (1 to 42) production expressed in HEK293 cells overexpressing APP Swedish mutant after 5 hrs by immunoassay. In kind it is cell-based.
Series [2] can be described thus: Selectivity ratio of IC50 for gamma secretase-mediated amyloid beta total production to IC50 for gamma secretase-mediated amyloid beta (1 to 42) production.
In the next series the test system is HEK293. The series can be described thus: Inhibition of gamma-secretase expressed in HEK293 cells assessed as reduction in Notch cleavage up to 20 uM. It is filed as cell-based.
The species entered for a further series is Mus musculus. The series can be described thus: Inhibition of mouse gamma-secretase assessed as reduction in reduction in Hes-1 expression up to 20 uM.
For another series, the species on record is Canis lupus familiaris. The series can be described thus: Inhibition of dog gamma-secretase assessed as reduction in reduction in Hes-1 expression up to 20 uM.
Series [3] has as its system Rattus norvegicus. Kind of series: Antialzheimer activity in CD rat assessed as reduction in amyloid beta total CSF level at 30 mg/kg, po measured after 3 hrs. Also noted: dose 30 mg/kg. It is filed as functional, organism-based.
Series [4] relates to Rattus norvegicus. The series can be described thus: Antialzheimer activity in CD rat assessed as reduction in amyloid beta (1 to 40) CSF level at 30 mg/kg, po measured after 3 hrs. It is filed as functional, organism-based. Also noted: dose 30 mg/kg.
The test system of series [5] is Rattus norvegicus. The series can be described thus: Antialzheimer activity in CD rat assessed as reduction in amyloid beta (1 to 42) CSF level at 30 mg/kg, po measured after 3 hrs. In kind it is functional.
Series [6] is described as follows: Drug uptake in CD rat plasma at 30 mg/kg, po measured after 3 hrs. It is filed as ADME, organism-based. Also noted: dose 30 mg/kg, route oral.
Series [7] is described as follows: Drug uptake in CD rat brain at 30 mg/kg, po measured after 3 hrs. It is filed as ADME, organism-based. Also noted: dose 30 mg/kg, route oral. The note with it: read-out: Drug uptake.

Activity calls are given as the source filed them. No cut-off for these calls is given here.

In [1], `COc1cc(-c2nnc3n([C@@H](C)c4ccc(F)cc4)cc(C(F)F)cc2-3)ccc1-n1cnc(C)c1` gave an IC50 of 123 nM. The Ratio IC50 in [2] amounted to 52. Also, the inhibition entry in the series with HEK293, in the series filed under Mus musculus, in the series listed under Canis lupus familiaris, in the series with Rattus norvegicus [3] and in the series on Rattus norvegicus [4] was “inactive” in each case. In addition, in the series with Rattus norvegicus [5], the outcome was inactive.

In turn, `COc1cc(-c2nnc3n([C@@H](C)c4ccc(F)c(F)c4)cc(Cl)cc2-3)ccc1-n1cnc(C)c1` came in with a concentration for half-maximal inhibition (IC50) in series [1] of 66 nM. Besides, in series [2], the Ratio IC50 turned out to be 301. The inhibition result in the series on HEK293, in the series listed under Mus musculus, in the series filed under Canis lupus familiaris, with Rattus norvegicus [3] and in the series with Rattus norvegicus [4] was “inactive” each time. Further, the concentration at 3 h in [6] was found to be 6510 nM; in series [7] it was 880 nM. Further, in the series on Rattus norvegicus [5], the Activity was 27%.

For the compound `CC[C@@H](c1cc(F)c(F)c(F)c1)n1cc(Cl)cc2c(-c3ccc(-n4cnc(C)c4)c(OC)c3)nnc1-2`, inhibition in [1] was half-maximal at 43 nM (IC50). The Ratio IC50 in series [2] turned out to be 463. Moreover, the inhibition result in the series with HEK293, in the series filed under Mus musculus, in the series listed under Canis lupus familiaris, in the series with Rattus norvegicus [3] and in the series on Rattus norvegicus [4] was “inactive” throughout. For the same compound, the concentration at 3 h in series [6] amounted to 7230 nM; in series [7], 1610 nM. For the same compound, the Activity in the series with Rattus norvegicus [5] was 30%.

In series [1], `COc1cc(-c2nnc3n([C@@H](C)c4cc(F)cc(F)c4)cc(Cl)cc2-3)ccc1-n1cnc(C)c1` displayed an IC50 of 38 nM. For the same compound, the Ratio IC50 in [2] was found to be 6. Besides, the inhibition entry with HEK293, in the series listed under Mus musculus, in the series listed under Canis lupus familiaris, in the series on Rattus norvegicus [3] and in the series on Rattus norvegicus [4] was “inactive” throughout.

Regarding `CC[C@@H](c1ccc(F)cc1)n1cccc2c(-c3ccc(-n4cnc(C)c4)c(OC)c3)nnc1-2`, the IC50 in [1] is 140 nM. In series [2], the Ratio IC50 came out at 42. The inhibition result in the series on HEK293, in the series filed under Mus musculus, in the series listed under Canis lupus familiaris, with Rattus norvegicus [3] and with Rattus norvegicus [4] was “inactive” each time.

Regarding `COc1cc(-c2nnc3n([C@H](C)c4ccc(F)cc4)cccc2-3)ccc1-n1cnc(C)c1`, in series [1], the half-maximal inhibitory concentration (IC50) stood at 332 nM. Moreover, the Ratio IC50 in series [2] amounted to 60. Moreover, the inhibition result with HEK293, in the series filed under Mus musculus, in the series listed under Canis lupus familiaris, in the series with Rattus norvegicus [3] and with Rattus norvegicus [4] was “inactive” each time.

The compound `COc1ccc(COCc2cc3c(-c4ccc(-n5cnc(C)c5)c(OC)c4)nnc-3n([C@@H](C)c3ccc(F)cc3)c2)cc1` showed a half-inhibitory concentration (IC50) in series [1] of 182 nM. Further, the Ratio IC50 in series [2] amounted to 110. Moreover, the inhibition entry in the series with HEK293, in the series listed under Mus musculus, in the series listed under Canis lupus familiaris, in the series with Rattus norvegicus [3] and in the series with Rattus norvegicus [4] was “inactive” throughout.

`COc1cc(-c2nnc3n([C@@H](C)c4ccc(F)cc4)cc(Cl)cc2-3)ccc1-n1cnc(C)c1` gave an IC50 in [1] of 70 nM. Besides, the Ratio IC50 in series [2] is 288. In addition, the inhibition entry in the series with HEK293, in the series filed under Mus musculus, in the series filed under Canis lupus familiaris, in the series with Rattus norvegicus [3] and in the series on Rattus norvegicus [4] was “inactive” each time. In addition, the concentration at 3 h in series [6] was 2740 nM; in series [7] it was 920 nM. For the same compound, in the series on Rattus norvegicus [5], the Activity was 32%.

For the compound `COc1ccc(Cn2cccc3c(-c4ccc(-n5cnc(C)c5)c(OC)c4)nnc2-3)cc1`, the midpoint of inhibition in series [1], the IC50, lay at 168 nM. Moreover, the Ratio IC50 in [2] came out at 119. In addition, the inhibition result with HEK293, in the series listed under Mus musculus, in the series filed under Canis lupus familiaris, in the series on Rattus norvegicus [3] and with Rattus norvegicus [4] was “inactive” each time.

Compound `COc1cc(-c2nnc3n([C@@H](C)c4ccc(F)cc4)cc(C#N)cc2-3)ccc1-n1cnc(C)c1` gave a concentration for half-maximal inhibition (IC50) in [1] of 172 nM. For the same compound, in series [2], the Ratio IC50 amounted to 60. Also, the inhibition result in the series with HEK293, in the series filed under Mus musculus, in the series filed under Canis lupus familiaris, in the series with Rattus norvegicus [3] and with Rattus norvegicus [4] was “inactive” in each case.

With `COc1cc(-c2nnc3n([C@@H](C)c4ccc(F)cc4)cc(CO)cc2-3)ccc1-n1cnc(C)c1`, in [1], the IC50 worked out at 81 nM. Also, the Ratio IC50 in series [2] came to 248. For the same compound, the inhibition entry in the series on HEK293, in the series filed under Mus musculus, in the series listed under Canis lupus familiaris, in the series on Rattus norvegicus [3] and in the series on Rattus norvegicus [4] was “inactive” throughout.

As to `COc1cc(-c2nnc3n(C(CCS(C)(=O)=O)c4ccc(F)cc4)cc(Cl)cc2-3)ccc1-n1cnc(C)c1` (centres undefined), in series [1], the IC50 worked out at 316 nM. Also, the Ratio IC50 in series [2] was 63. Moreover, the inhibition result in the series on HEK293, in the series filed under Mus musculus, in the series listed under Canis lupus familiaris, in the series on Rattus norvegicus [3] and in the series with Rattus norvegicus [4] was “inactive” throughout.

Regarding `C=C(c1ccc(F)cc1)n1cc(Cl)cc2c(-c3ccc(-n4cnc(C)c4)c(OC)c3)nnc1-2`, the IC50 in series [1] was determined as 481 nM. In series [2], the Ratio IC50 came out at 42. For the same compound, the inhibition result in the series on HEK293, in the series listed under Mus musculus, in the series listed under Canis lupus familiaris, in the series on Rattus norvegicus [3] and in the series on Rattus norvegicus [4] was “inactive” each time.

With `COc1cc(-c2nnc3n(C(C)c4ccc(F)cc4)cccc2-3)ccc1-n1cnc(C)c1` (racemic), the midpoint of inhibition in [1], the IC50, lay at 231 nM. Besides, the Ratio IC50 in series [2] came to 87. For the same compound, the inhibition result with HEK293, in the series filed under Mus musculus, in the series filed under Canis lupus familiaris, in the series with Rattus norvegicus [3] and with Rattus norvegicus [4] was “inactive” each time.

In series [1], `COc1cc(-c2nnc3n([C@@H](C)c4ccc(F)cc4)cc(CF)cc2-3)ccc1-n1cnc(C)c1` had an IC50 of 634 nM. For the same compound, in [2], the Ratio IC50 stood at 32. In addition, the inhibition result in the series with HEK293, in the series filed under Mus musculus, in the series filed under Canis lupus familiaris, in the series with Rattus norvegicus [3] and with Rattus norvegicus [4] was “inactive” each time.

`COc1cc(-c2nnc3n([C@@H](C)c4ccc(F)cc4)cc(C(C)(F)F)cc2-3)ccc1-n1cnc(C)c1` registered an IC50 in [1] of 143 nM. The Ratio IC50 in series [2] came out at 66. The inhibition result with HEK293, in the series listed under Mus musculus, in the series filed under Canis lupus familiaris, in the series on Rattus norvegicus [3] and in the series on Rattus norvegicus [4] was “inactive” each time. Moreover, the concentration at 3 h in [6] amounted to 30 nM. In addition, the outcome in the series on Rattus norvegicus [5] was inactive.

(Values after ChEMBL document CHEMBL1949654, “Discovery of a Potent Pyrazolopyridine Series of γ-Secretase Modulators” (ACS Med Chem Lett, 2011).)
